What was measured:
Assay type in all cases: biochemical
BRISC = biological target: T1, BRISC (Homo sapiens, UniProt P46736+Q15018); assay: BRISC DUB inhibition assay with quenched K63-linked di-ubiquitin substrate (TAMRA fluorescence); details: Table 1, Activity Range Table
T1 construct: made in house; host or cells: insect cells (MultiBac baculovirus)
Experimental: High throughput screening. A baculoviral expression system was established to purify milligram quantities of the entire BRISC complex from insect cells. The MultiBac system was used to clone all 4 components of the BRISC complex into one vector which was then packaged into the baculovirus genome using the methods described in Zeqiraj et al., 2015 (Mol. Cell).
The assay buffer included: 50 mM HEPES-NaOH, pH 7.0; 100 mM NaCl; 1 mM DTT; 1 mg/ml BSA; and 0.03% Brij-35. BRISC was assayed at 1 nM (final concentration) with the substrate at 500 nM (final concentration). The final reaction volume was 20 μl in each 384 plate well (Corning, #3573; black, low flange, flat bottom) with a final concentration of compounds of 10 μM.
A 5 ml of enzyme solution with BRISC at 2 nM in assay buffer was made by adding 10 μl of BRISC working stock (1 μM) to 5 ml of assay buffer. A 5 ml of substrate solution was made with […] of K63-diUbiquitin (made in-house) plus […] of IQF K63-diUbiquitin by adding the appropriate volumes of diUbiquitins to 5 ml of assay buffer. 45 μL of BRISC (enzyme solution) was dispensed into columns 1-11 of a 96 well PCR plate (skirted). Buffer was only dispensed in column 12 (no enzyme control). 45 μl of substrate solution was dispensed into columns 1-12 of a 96 well PCR plate (skirted). The plate was spun down at 3000 rpm (bench top centrifuge) at room temp for 2 min to remove any air bubbles. Using a Biomek FX, liquid handler (Bekman), 10 μl of BRISC (enzyme solution) was dispensed into the 4 quadrants of a 384 well plate. 200 nl of compounds was dispensed into each well of the 384 plates using the pin tool (columns A and B usually contain DMSO only, and serve as controls), and the plates were incubated for 10-15 minutes at room temperature. 10 μl of substrate solution was dispensed into the 4 quadrants of the 384 well plate. The plate was then incubated for 30 min at room temperature in the dark and read with settings suitable for detecting TAMRA fluorescence (excitation wavelength of 540 nm and emission wavelength of 580 nm). A PHERAStar plate (BMG labtech) reader was used with a gain value of 570. The Intensity/Background (I/Bg), defined as [(Average of columns 1 and 2; DMSO controls)/(Average of columns 23 and 24; no enzyme controls)], were about 5.
The activities of the compounds disclosed in the present disclosure in inhibiting BRCC36 enzyme activity was measured in accordance with the method disclosed in Example 2.

[1] = biological target: RAP80 (BRCC36-Abraxas-BRCC45-MERIT40-RAP80) complex (Homo sapiens, UniProt P46736); assay: Cross-reactivity against RAP80 holoenzyme; details: FIG. 7A
trypsin = assay: Selectivity counter-assay against trypsin; details: FIG. 6C / 7A
BRCC36 enzyme activity = biological target: T2, BRCC36 enzyme activity (Homo sapiens, UniProt P46736+Q15018); assay: Mode of inhibition: increasing di-Ubiquitin substrate and free Zn2+
T2 construct: made in house; host or cells: insect cells (MultiBac baculovirus)

USP2 = biological target: T3, USP2 (Homo sapiens, UniProt O75604); assay: Selectivity counter-assay against USP2; details: FIG. 6C / 7A
T3 sequence (O75604 1-605): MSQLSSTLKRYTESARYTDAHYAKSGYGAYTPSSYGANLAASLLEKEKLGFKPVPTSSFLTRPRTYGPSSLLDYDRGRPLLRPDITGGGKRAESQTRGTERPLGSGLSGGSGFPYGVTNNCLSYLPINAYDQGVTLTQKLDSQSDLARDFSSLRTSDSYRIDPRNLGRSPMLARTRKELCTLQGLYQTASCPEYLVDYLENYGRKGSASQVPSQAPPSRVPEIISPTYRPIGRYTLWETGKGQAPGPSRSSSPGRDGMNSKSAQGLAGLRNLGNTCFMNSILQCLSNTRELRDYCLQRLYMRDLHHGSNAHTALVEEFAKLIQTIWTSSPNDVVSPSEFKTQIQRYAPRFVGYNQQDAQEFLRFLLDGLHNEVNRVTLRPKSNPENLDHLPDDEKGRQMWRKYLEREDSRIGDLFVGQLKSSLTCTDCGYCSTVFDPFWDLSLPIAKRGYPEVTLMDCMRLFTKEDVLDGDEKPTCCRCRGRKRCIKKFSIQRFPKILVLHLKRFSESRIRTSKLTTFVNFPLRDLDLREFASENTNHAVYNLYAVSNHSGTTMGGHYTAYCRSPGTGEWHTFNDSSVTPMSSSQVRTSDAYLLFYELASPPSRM

[2] = biological target: ARISC (BRCC36-Abraxas-BRCC45-MERIT40) (Homo sapiens, UniProt P46736); assay: Cross-reactivity against ARISC holoenzyme; details: FIG. 7A

O=C(NC1CCNCC1)c1nn(C(=O)c2c(Cl)cccc2Cl)cc1NC(=O)c1c(Cl)cccc1Cl [Compound 1, 4-(2,6-dichlorobenzamido)-1-(2,6-dichlorobenzoyl)-N-(piperidin-4-yl)-1H-pyrazole-3-carboxamide]
IC50 (BRISC): 1 to 10 µM
cross reactivity to RAP80 holoenzyme [1]: no significant cross reactivity
selectivity for BRISC versus trypsin (trypsin): selectivity for BRISC
mode of inhibition (BRCC36 enzyme activity): non-competitive inhibitors
selectivity for BRISC versus USP2 (USP2): selectivity for BRISC
cross reactivity to ARISC holoenzyme [2]: no significant cross reactivity
